Source: patent US6727382B1, “Peroxyacids” (Unilever Patent Holdings, B.V., priority 1992, dated 2004)

Key:
[1] = Bleaching of tea stained test cloths, reflectance at 460 nm (Example VII); conditions: 40° C., 30 minutes, 1×10^−3 mol peracid in 100 ml demineralised water, EDTA 2×10^−5 M
Description: (§1) Bleaching experiments were carried out in a temperature controlled glass vessel, equipped with a magnetic stirrer, thermocouple and a pH electrode, at a constant temperature of 40° C. pH was adjusted using 0.1M NaOH.
(§2) Peracid prepared according to example I was exchanged with SDS and 1×10^−3 mol added to 100 ml demineralised water and ethylene diamine tetraacteic acid (EDTA) (2×10^−5 M) in the glass vessel. Thereafter, tea stained test cloths were immersed in the solution for 30 minutes. The liquor to cloth ratio was greater than 20:1. After rinsing with tap water, the cloths were dried in a tumble drier.
(§3) Bleaching performance was determined using a Instrumental Colour Systems Micro-match to measure the reflectance, at 460 nm, of the cloths both before and after treatment. The difference (ΔR460*) in the values gives a measure of the effectiveness of the treatment.

[2] = Bleaching of tea stained test cloths with peroxyacid formed in situ with SDS or Coco-PAS (Example VIII); conditions: EDTA 2×10^−5 M, pH 10; for ΔR460* Coco-PAS: peracid 1×10^−3 mol with Coco-PAS 2×10^−3 mol in 100 ml demineralised water; for ΔR460* SDS: peracid 1×10^−3 mol with SDS 2×10^−3 mol in 100 ml demineralised water
Description: as §1, §2, §3
Example VI was repeated using materials prepared according to examples I-VI and the comparative example. Peracid (1×10^−3 mol) was added to a glass vessel containing 100 ml demineralised water, EDTA, (2×10^−5 M), and SDS or Coco-PAS (2×10^−3 mol), i.e cationic peroxyacids according to the invention were formed in-situ. The pH was adjusted to pH 10 using 0.1NaOH. The difference (ΔR460*) in the values gives a measure of the effectiveness of the bleaching performance.

## C[N+](C)(C)CCOC(=O)Oc1ccc(S(=O)(=O)[O-])cc1 [CSPC, 2-(N,N,N-trimethylammonium)ethyl-4-sulphonyl carbonate]
[1]; pH 7.0
  ΔR460* bleaching performance: 20.0
[1]; pH 8.0
  ΔR460* bleaching performance: 22.0
[1]; pH 9.0
  ΔR460* bleaching performance: 20.0

## CS(=O)(=O)[O-].C[N+](C)(C)Cc1ccc(C(=O)OO)cc1 [Example I, α-Trimethylammonium-4-peroxytoluic Acid Methane Sulphonate]
[2]
  ΔR460* Coco-PAS: 26.7
  ΔR460* SDS: 24.0

## C[N+](C)(Cc1ccccc1)Cc1ccc(C(=O)OO)cc1.Cc1ccc(S(=O)(=O)[O-])cc1 [Example II, α-Benzyl-dimethylammonium-4-peroxytoluic Acid Tosylate]
[2]
  ΔR460* Coco-PAS: 18.9
  ΔR460* SDS: 21.9

## O=C(CCCCCN1C(=O)c2ccccc2C1=O)OO [PAP]
[1]; pH 7.0
  ΔR460* bleaching performance: 13.0
[1]; pH 8.0
  ΔR460* bleaching performance: 13.0
[1]; pH 9.0
  ΔR460* bleaching performance: 6.0
[1]; pH 10.0
  ΔR460* bleaching performance: 4.0

## CCCCCCCCC(=O)Oc1ccc(S(=O)(=O)[O-])cc1.[Na+] [SNOBS, Sodium nonoyloxybenzene sulphonate]
[1]; pH 9.0
  ΔR460* bleaching performance: 7.5
[1]; pH 10.0
  ΔR460* bleaching performance: 5.0

## α-Butyl-dimethylammonium-4-peroxytoluic Acid Tosylate [Example V]
[2]
  ΔR460* Coco-PAS: 21.8
  ΔR460* SDS: 23.7

## α-Heptyl-Dimethylammonium-4-Peroxytoluic Acid Tosylate [Example IV]
[2]
  ΔR460* SDS: 14.5

## α-Octyl-dimethylammonium-4-peroxytoluic Acid Tosylate [Comparison]
[2]
  ΔR460* Coco-PAS: 7.6
  ΔR460* SDS: 8.0

## α-Pentyl-dimethylammonium-4-peroxytoluic Acid Tosylate [Example VI]
[2]
  ΔR460* Coco-PAS: 18.6
  ΔR460* SDS: 21.9

## αHexyl-dimethylammonium-4-peroxytoluic Acid Tosylate [Example III]
[2]
  ΔR460* Coco-PAS: 16.1
  ΔR460* SDS: 23.5
